Test results from patent US12157730B2, “Heteroaryl derivative, method for producing same, and pharmaceutical composition comprising same as effective component” (VORONOI INC., priority 2019, dated 2024).

biological target: T1, Ba/F3 cell EGFR Exon20 ins NPH (Homo sapiens, UniProt P00533, INS773NPH); test: Ba/F3 cell proliferation suppression, EGFR Exon20 ins NPH; type: cell-based; settings: GI50 class; Ba/F3 cell line with NPH inserted at Exon20 of EGFR; 72 hours
T1 construct: expressed in transfected cells; host or cells: Ba/F3
Method in brief: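 Growth suppression determined as GI50 following 72 h exposure across 12 concentrations up to 50 um, with viability by luminescent ATP assay (CellTiter-Glo).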

| Compound | Ba/F3 (NPH) Activity |
| --- | --- |
| C=CC(=O)Nc1cc(Nc2cc(N3OCC[C@@H]3c3cccc(Cl)c3Cl)ncn2)c(OC)cc1N1C[C@H]2C[C@@H]1CO2 [compound 523, N-(2-((1R,4R)-2-oxa-5-azabicyclo[2.2.1]heptane-5-yl)-5-((6-((R)-3-(2,3-dichlorophenyl)isoxazolidine-2-yl)pyrimidine-4-yl)amino)-4-methoxyphenyl) acrylamide] | A (GI50 < 50 nM) |
| C=CC(=O)Nc1cc(Nc2cc(N3OCC[C@@H]3c3c(F)ccc(F)c3F)ncn2)c(OC)cc1N1CCC(N2CCN(C3CC3)CC2)CC1 [Example 169, N-(2-(4-(4-cyclopropylpiperazine-1-yl)piperidine-1-yl)-4-methoxy-5-((6-((R)-3-(2,3,6-trifluorophenyl)isoxazolidine-yl)pyrimidine-4-yl)amino)phenyl)acrylamide] | A (GI50 < 50 nM) |
| C=CC(=O)Nc1cc(Nc2cc(N3OCC[C@@H]3c3ccc(F)cc3F)ncn2)c(OC)cc1N1CCN(C2CC2)CC1 [compound 344, N-(2-(4-cyclopropylpiperazine-1-yl)-5-((6-((R)-3-(2,4-difluorophenyl)isoxazolidine-2-yl)pyrimidine-4-yl)amino)-4-methoxyphenyl) acrylamide] | A (GI50 < 50 nM) |
| C=CC(=O)Nc1cc(Nc2cc(N3OCC[C@@H]3c3ccc4ccccc4c3)ncn2)c(OC)cc1N1CCN(C)CC1 [compound 509, N-(4-methoxy-2-(4-methylpiperazine-1-yl)-5-((6-((R)-3-(naphthalene-2-yl)isoxazolidine-2-yl)pyrimidine-4-yl)amino)phenyl)acrylamide] | B (50 nM ≤ GI50 < 500 nM) |
| C=CC(=O)Nc1cc(Nc2cc(N3OCC[C@@H]3c3ccc(F)c(Cl)c3)ncn2)c(OC)cc1N1CCC(N2C[C@@H](C)N(CC)[C@@H](C)C2)CC1 [compound 370, N-(5-((6-((R)-3-(3-chloro-4-fluorophenyl)isoxazolidine-2-yl)pyrimidine-4-yl)amino)-2-(4-((3S,5R)-4-ethyl-3,5-dimethylpiperazine-1-yl)piperidine-1-yl)-4-methoxyphenyl) acrylamide] | A (GI50 < 50 nM) |
| C=CC(=O)Nc1cc(Nc2cc(N3OCC[C@@H]3c3cccc(F)c3F)ncn2)c(OC)cc1N1CCN(C(C)C)CC1 [compound 334, N-(5-((6-((R)-3-(2,3-difluorophenyl)isoxazolidine-2-yl)pyrimidine-4-yl)amino)-2-(4-isopropylpiperazine-1-yl)-4-methoxyphenyl) acrylamide] | A (GI50 < 50 nM) |
| C=CC(=O)Nc1cc(Nc2cc(N3OCC[C@@H]3c3cc(F)cc(F)c3)ncn2)c(OC)cc1N1CCC(N2C[C@H]3C[C@@H]2CN3CC)CC1 [Example 267, N-(5-((6-((R)-3-(3,5-difluorophenyl)isoxazolidine-2-yl)pyrimidine-4-yl)amino)-2-(4-((1R,4R)-5-ethyl-2,5-diazabicyclo[2.2.1]heptane-2-yl)piperidine-yl)-4-1-methoxyphenyl) acrylamide] | A (GI50 < 50 nM) |
| C=CC(=O)Nc1cc(Nc2cc(N3OCC[C@@H]3c3ccc(F)c(F)c3F)ncn2)c(OC)cc1N1CC[C@@H](N2CCOCC2)C1 [compound 623, N-(4-methoxy-2-((R)-3-morpholinopyrolidine-1-yl)-5-((6-((R)-3-(2,3,4-trifluorophenyl)isoxazolidine-2-yl)pyrimidine-4-yl)amino)phenyl)acrylamide] | C (500 nM ≤ GI50 < 5000 nM) |
| C=CC(=O)Nc1cc(Nc2cc(N3OCC[C@@H]3c3cc(F)ccc3F)ncn2)c(OC)cc1N1CCC(N2CC[C@H](N(C)C)C2)CC1 [compound 816, N-(5-((6-((R)-3-(2,5-difluorophenyl)isoxazolidine-2-yl)pyrimidine-4-yl)amino)-2-(4-((S)-3-(dimethylamino)pyrolidine-1-yl)piperidine-1-yl)-4-methoxyphenyl) acrylamide] | A (GI50 < 50 nM) |
| C=CC(=O)Nc1cc(Nc2cc(N3OCC[C@@]3(C)c3ccccc3)ncn2)c(OC)cc1N1CCC(N2C[C@H]3C[C@@H]2CO3)CC1 [Example 269, N-(2-(4-((1R,4R)-2-oxa-5-azabicyclo[2.2.1]heptane-5-yl)piperidine-1-yl)-4-methoxy-5-((6-((S)-3-methyl-3-phenylisoxazolidine-2-yl)pyrimidine-4-yl)amino)phenyl) acrylamide] | C (500 nM ≤ GI50 < 5000 nM) |
| C=CC(=O)Nc1cc(Nc2cc(N3OCC[C@@H]3c3ccc(Cl)c(Cl)c3)ncn2)c(OC)cc1N1CCOCC1 [compound 615, N-(5-((6-((R)-3-(3,4-dichlorophenyl)isoxazolidine-2-yl)pyrimidine-4-yl)amino)-4-methoxy-2-morpholinophenyl) acrylamide] | A (GI50 < 50 nM) |
| C=CC(=O)Nc1cc(Nc2cc(N3OCC[C@@H]3Cc3cccc(Cl)c3C)ncn2)c(OC)cc1N1CCC(N2C[C@H]3C[C@@H]2CO3)CC1 [compound 1030, N-(2-(4-((1R,4R)-2-oxa-5-azabicyclo [2.2.1]heptane-5-yl)piperidine-1-yl)-5-((6-((S)-3-(3-chloro-2-methylbenzyl)isoxazolidine-2-yl)pyrimidine-4-yl)amino)-4-methoxyphenyl) acrylamide] | A (GI50 < 50 nM) |
| C=CC(=O)Nc1cc(Nc2cc(N3OCC[C@@H]3c3ccc(Cl)c(F)c3)ncn2)c(OC)cc1N1CCC(N2C[C@@H](C)O[C@@H](C)C2)CC1 [compound 709, N-(5-((6-((R)-3-(4-chloro-3-fluorophenyl)isoxazolidine-2-yl)pyrimidine-4-yl)amino)-2-(4-((2S,6R)-2,6-dimethylmorpholino)piperidine-1-yl)-4-methoxyphenyl) acrylamide] | A (GI50 < 50 nM) |
| C=CC(=O)Nc1cc(Nc2cc(N3OCC[C@@H]3Cc3ccccc3)ncn2)c(OC)cc1N1CCN(C2COC2)CC1 [compound 958, N-(5-((6-((S)-3-benzylisoxazolidine-2-yl)pyrimidine-4-yl)amino)-4-methoxy-2-(4-(oxetane-3-yl)piperazine-1-yl)phenyl)acrylamide] | A (GI50 < 50 nM) |
| C=CC(=O)Nc1cc(Nc2cc(N3OCC[C@@H]3c3ccc(F)c(F)c3F)ncn2)c(OC)cc1N1CCC(N2C[C@H]3C[C@@H]2CO3)CC1 [compound 575, N-(2-(4-((1R,4R)-2-oxa-5-azabicyclo [2.2.1]heptane-5-yl)piperidine-1-yl)-4-methoxy-5-((6-((R)-3-(2,3,4-trifluorophenyl)isoxazolidine-2-yl)pyrimidine-4-yl)amino)phenyl)acrylamide] | A (GI50 < 50 nM) |

The remaining lines, values ahead:

| Ba/F3 (NPH) Activity | Compound |
| --- | --- |
| C (500 nM ≤ GI50 < 5000 nM) | C=CC(=O)Nc1cc(Nc2cc(N3OCC[C@@H]3c3cc(F)cc(F)c3)ncn2)c(OCC)cc1N1CCC(N2CCN(C3CC3)CC2)CC1 [Example 116, N-(2-(4-(4-cyclopropylpiperazine-1-yl)piperidine-1-yl)-5-((6-((R)-3-(3,5-difluorophenyl)isoxazolidine-2-yl)pyrimidine-4-yl)amino)-4-ethoxyphenyl) acrylamide] |
| A (GI50 < 50 nM) | C=CC(=O)Nc1cc(Nc2cc(N3OCC[C@@H]3c3cc(F)cc(F)c3)ncn2)c(OC)cc1N1CCC(N2CCN(C)C[C@@H]2C)CC1 [compound 762, N-(5-((6-((R)-3-(3,5-difluorophenyl)isoxazolidine-2-yl)pyrimidine-4-yl)amino)-2-(4-((S)-2,4-dimethylpiperazine-1-yl)piperidine-1-yl)-4-methoxyphenyl) acrylamide] |
| A (GI50 < 50 nM) | C=CC(=O)Nc1cc(Nc2cc(N3OCC[C@@H]3c3cc(F)cc(Cl)c3)ncn2)c(OC)cc1N1CCN(C)CC1 [compound 537, N-(5-((6-((R)-3-(3-chloro-5-fluorophenyl)isoxazolidine-2-yl)pyrimidine-4-yl)amino)-4-methoxy-2-(4-methylpiperazine-1-yl)phenyl)acrylamide] |
| A (GI50 < 50 nM) | C=CC(=O)Nc1cc(Nc2cc(N3OCC[C@@H]3c3cccc(Cl)c3F)ncn2)c(OC)cc1N1CCC(N2CCN(C3CC3)CC2)CC1 [Example 62, N-(5-((6-((R)-3-(3-chloro-2-fluorophenyl)isoxazolidine-2-yl)pyrimidine-4-yl)amino)-2-(4-(4-cyclopropylpiperazine-1-yl)piperidine-1-yl)-4-methoxyphenyl) acrylamide] |
| A (GI50 < 50 nM) | C=CC(=O)Nc1cc(Nc2cc(N3OCC[C@@H]3c3cc(F)cc(Cl)c3)ncn2)c(OC)cc1N1CCC(N2CCN(C(C)C)CC2)CC1 [compound 593, N-(5-((6-((R)-3-(3-chloro-5-fluorophenyl)isoxazolidine-2-yl)pyrimidine-4-yl)amino)-2-(4-(4-isopropylpiperazine-1-yl)piperidine-1-yl)-4-methoxyphenyl) acrylamide] |
| A (GI50 < 50 nM) | C=CC(=O)Nc1cc(Nc2cc(N3OCC[C@@H]3c3cccc(Cl)c3Cl)ncn2)c(OC)cc1N1CCC(N2CCN(C(C)C)CC2)CC1 [compound 609, N-(5-((6-((R)-3-(2,3-dichlorophenyl)isoxazolidine-2-yl)pyrimidine-4-yl)amino)-2-(4-(4-isopropylpiperazine-1-yl)piperidine-1-yl)-4-methoxyphenyl) acrylamide] |
| A (GI50 < 50 nM) | C=CC(=O)Nc1cc(Nc2cc(N3OCC[C@@H]3c3cc(F)cc(F)c3)ncn2)c(OC)cc1N1CCC(N2CCOC[C@H]2C)CC1 [compound 842, N-(5-((6-((R)-3-(3,5-difluorophenyl)isoxazolidine-2-yl)pyrimidine-4-yl)amino)-4-methoxy-2-(4-((R)-3-methylmorpholino)piperidine-1-yl)phenyl) acrylamide] |
| A (GI50 < 50 nM) | C=CC(=O)Nc1cc(Nc2cc(N3OCC[C@@H]3c3cccc(OC)c3)ncn2)c(OC)cc1N1CCC(N2CCN(CCC)CC2)CC1 [compound 549, N-(4-methoxy-5-((6-((R)-3-(3-methoxyphenyl)isoxazolidine-2-yl)pyrimidine-4-yl)amino)-2-(4-(4-propylpiperazine-1-yl)piperidine-1-yl)phenyl) acrylamide] |
